These compounds were tested against human chemokine receptor CCR3 (Homo sapiens (Human), UniProt P51677) (assay: CCR3 receptor binding assay (SPA, 125I-eotaxin-1)). Conditions: human Eotaxin-1 at human CCR3-Rezeptor; membranes of hCCR3-C1 (transfected K562) cells.
Protocol: The CCR3 receptor binding test is based on a K562 cell line (leukemia myelogenic blast cells) transfected with the human chemokine receptor CCR3 (hCCR3-C1 cells). The cell membranes were prepared by disrupting the hCCR3-C1 cells by […]. The preparation was centrifuged at 400 g 4° C. for 30 min. The supernatant was transferred into fresh tubes followed by a second centrifugation at 48000 g, 4° C. for 1 h. The membranes were re-suspended in the SPA incubation buffer (25 mM HEPES, 25 mM MgCl2 6×H2O, 1 mM CaCl2 2×H2O) without bovine serum albumin and homogenized by passing through a single use needle (Terumo, 23Gx1″). The membranes were stored in aliquots at −80° C.
The CCR3 receptor binding assay was performed in a Scintillation Proximity Assay (SPA) design with the radioligand recombinant human ^125Iodine-eotaxin-1. Cell membranes of hCCR3 C1 cells were again homogenized by passing through a single use needle (Terumo, 23Gx1″) and diluted in SPA incubation buffer in suitable concentrations (0.5-10 μg protein/well) in 96 well microtiter plates (1450-514, Perkin Elmer). The SPA assay was set up in the SPA incubation buffer with a final volume of 200 μl and final concentration of 25 mM HEPES, 25 mM MgCl2 6×H2O, 1 mM CaCl2 2×H2O and 0.1% bovine serum albumin. The SPA assay mixture contained 60 μl of the membrane suspension, 80 μl of Wheat Germ Agglutinin coated PVT beads (organic scintillator, GE Healthcare, RPNQ-0001) 0.2 mg/well), 40 μl of recombinant human ^125Jodine-eotaxin-1 (Biotrend), diluted in SPA buffer to a final concentration of 30.000 dpm per well, and 20 μl of the test compound (dissolved in DMSO dilutions). The SPA assay mixture was incubated for 2 h at room temperature. Bound radioactivity was determined with a scintillation counter (Micro Beta “Trilux”, Wallac). Included were controls for total binding (no displacer added, Bo) and non-specific binding (NSB) by adding unlabelled recombinant human Eotaxin-1 (Biotrend, Cat #300-21) or a reference compound.
Determination of the affinity of a test compound was calculated by subtraction of the non-specific binding (NSB) from the total binding (Bo) or the binding in the presence of the test compound (B) at a given compound concentration. The NSB value was set to 100% inhibition. The Bo-NSB value was set to 0% inhibition.

Sequence of human chemokine receptor CCR3 (P51677 whole entry): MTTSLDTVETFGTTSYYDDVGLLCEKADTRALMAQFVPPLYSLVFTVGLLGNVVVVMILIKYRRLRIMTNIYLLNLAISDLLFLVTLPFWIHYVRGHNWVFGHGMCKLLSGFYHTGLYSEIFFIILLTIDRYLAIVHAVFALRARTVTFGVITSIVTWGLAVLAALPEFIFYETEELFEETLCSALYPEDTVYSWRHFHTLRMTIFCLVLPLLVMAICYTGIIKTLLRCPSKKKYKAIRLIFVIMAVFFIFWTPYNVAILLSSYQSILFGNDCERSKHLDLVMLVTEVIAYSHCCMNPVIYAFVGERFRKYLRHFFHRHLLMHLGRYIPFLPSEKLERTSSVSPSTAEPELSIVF

SMILES	Ki
CNC(=O)c1cc(C)nc(NC(=O)[C@H]2CCC(=O)N2C2CCN(Cc3ccc(Cl)c(C)c3)CC2)c1 [Example 7]	10.4 nM
COc1ccnc(NC(=O)[C@H]2CCC(=O)N2C2CCN(Cc3ccc(Cl)c(C)c3)CC2)c1 [Example 3]	46.5 nM
CNC(=O)c1cccc(NC(=O)[C@H]2CCC(=O)N2C2CCN(Cc3ccc(Cl)c(C)c3)CC2)n1 [Example 6]	72 nM
Cc1cc(CN2CCC(N3C(=O)CC[C@@H]3C(=O)Nc3cc(C(=O)N(C)C)ccn3)CC2)ccc1Cl [Example 8]	8.5 nM
CCc1cc(C(=O)N(C)C)cc(NC(=O)[C@H]2CCC(=O)N2C2CCN(Cc3ccc(Cl)c(C)c3)CC2)n1 [Example 25]	8.3 nM
CCC(C)N(C)C(=O)c1cc(C)nc(NC(=O)[C@H]2CCC(=O)N2C2CCN(Cc3ccc(Cl)c(C)c3)CC2)c1 (stereo partly shown) [Example 21]	5.2 nM
Cc1cc(C(=O)N(C)C)cc(NC(=O)[C@H]2CCC(=O)N2C2CCN(Cc3ccc(Cl)c(Cl)c3)CC2)n1 [Example 28]	17.8 nM
Cc1cc(C(=O)N(C)C)cc(NC(=O)[C@H]2CCC(=O)N2C2CCN(Cc3ccc(Cl)c(C(F)(F)F)c3)CC2)n1 [Example 31]	87.2 nM
Cc1cc(CN2CCC(N3C(=O)CC[C@@H]3C(=O)N(C)c3ccccn3)CC2)ccc1Cl [Example 14]	1400 nM
CCc1cc(CN2CCC(N3C(=O)CC[C@@H]3C(=O)Nc3cc(C(=O)N(C)C)cc(C)n3)CC2)ccc1Cl [Example 33]	7.9 nM
Cc1cc(CN2CCC(N3C(=O)CC[C@@H]3C(=O)Nc3cc(C(=O)N4CCOCC4)ccn3)CC2)ccc1Cl [Example 13]	19.1 nM
Cc1cc(C(=O)N2CCC2)cc(NC(=O)[C@H]2CCC(=O)N2C2CCN(Cc3ccc(Cl)c(C)c3)CC2)n1 [Example 16]	6.8 nM
CCc1ccnc(NC(=O)[C@H]2CCC(=O)N2C2CCN(Cc3ccc(Cl)c(C)c3)CC2)c1 [Example 5]	197 nM
Cc1cc(C(=O)N(C)C)cc(NC(=O)[C@H]2CCC(=O)N2C2CCN(Cc3ccc(Br)c(C)c3)CC2)n1 [Example 24]	5.8 nM
C#Cc1cc(C(=O)N(C)C)cc(NC(=O)[C@H]2CCC(=O)N2C2CCN(Cc3ccc(Cl)c(C)c3)CC2)n1 [Example 34]	7.9 nM
CCCCc1cc(C(=O)N(C)C)cc(NC(=O)[C@H]2CCC(=O)N2C2CCN(Cc3ccc(Cl)c(C)c3)CC2)n1 [Example 27]	414 nM
Cc1cc(C(=O)N(C)C)cc(NC(=O)[C@H]2CCC(=O)N2C2CCN(Cc3cc(C)c(Cl)c(C)c3)CC2)n1 [Example 35]	61.3 nM
COc1cc(C(=O)N(C)C)cc(NC(=O)[C@H]2CCC(=O)N2C2CCN(Cc3ccc(Cl)c(C)c3)CC2)n1 [Example 26]	232 nM
CNC(=O)c1ccnc(NC(=O)[C@H]2CCC(=O)N2C2CCN(Cc3ccc(Cl)c(C)c3)CC2)c1 [Example 1]	23.4 nM
Cc1ccnc(NC(=O)[C@H]2CCC(=O)N2C2CCN(Cc3ccc(Cl)c(C)c3)CC2)c1 [Example 4]	67.5 nM
Cc1cccc(NC(=O)[C@H]2CCC(=O)N2C2CCN(Cc3ccc(Cl)c(C)c3)CC2)n1 [Example 2]	69.6 nM
Cc1cc(C(=O)N(C)C)cc(NC(=O)[C@H]2CCC(=O)N2C2CCN(Cc3ccc(F)c(C)c3)CC2)n1 [Example 30]	70.3 nM

Stronger by Ki, values ahead:

Ki	SMILES
4.7 nM	Cc1cc(CN2CCC(N3C(=O)CC[C@@H]3C(=O)Nc3cc(C(=O)N4CCCC4)ccn3)CC2)ccc1Cl [Example 12]
4.6 nM	Cc1cc(C(=O)NCC(F)F)cc(NC(=O)[C@H]2CCC(=O)N2C2CCN(Cc3ccc(Cl)c(C)c3)CC2)n1 [Example 18]
4.3 nM	Cc1cc(C(=O)NCC(C)C)cc(NC(=O)[C@H]2CCC(=O)N2C2CCN(Cc3ccc(Cl)c(C)c3)CC2)n1 [Example 17]
4.2 nM	Cc1cc(C(=O)NC2CCC2)cc(NC(=O)[C@H]2CCC(=O)N2C2CCN(Cc3ccc(Cl)c(C)c3)CC2)n1 [Example 23]
4.1 nM	Cc1cc(CN2CCC(N3C(=O)CC[C@@H]3C(=O)Nc3cc(C(=O)N(C)C)cc(C(C)C)n3)CC2)ccc1Cl [Example 29]
4 nM	CCC(C)NC(=O)c1cc(C)nc(NC(=O)[C@H]2CCC(=O)N2C2CCN(Cc3ccc(Cl)c(C)c3)CC2)c1 (stereo partly shown) [Example 19]
3.5 nM	Cc1cc(C(=O)NCC2CC2)cc(NC(=O)[C@H]2CCC(=O)N2C2CCN(Cc3ccc(Cl)c(C)c3)CC2)n1 [Example 15]
3.2 nM	Cc1cc(C(=O)N(C)C)cc(NC(=O)[C@H]2CCC(=O)N2C2CCN(Cc3ccc(Cl)c(C)c3)CC2)n1 [Example 11]
2.3 nM	Cc1cc(C(=O)N(C)C(C)C)cc(NC(=O)[C@H]2CCC(=O)N2C2CCN(Cc3ccc(Cl)c(C)c3)CC2)n1 [Example 22]
2.3 nM	Cc1cc(CN2CCC(N3C(=O)CC[C@@H]3C(=O)Nc3cc(C(=O)N(C)C)cc(C4CC4)n3)CC2)ccc1Cl [Example 32]
1.7 nM	CCN(C)C(=O)c1cc(C)nc(NC(=O)[C@H]2CCC(=O)N2C2CCN(Cc3ccc(Cl)c(C)c3)CC2)c1 [Example 36]
0.9 nM	Cc1cc(C(=O)N2CCCC2)cc(NC(=O)[C@H]2CCC(=O)N2C2CCN(Cc3ccc(Cl)c(C)c3)CC2)n1 [Example 9]
